Experimental data reported in PubChem BioAssay AID1745844 (Carcinogenic Potency Database (CPDB), 2022).
Several values for one entry are separate records, joined by “and”; a condition that tells them apart may be missing. Equal values may be shown once. Activity calls are given as the source filed them. How the calls were made is not given here.

Tested on: rodent lifetime carcinogenesis bioassay, tumor incidence TD50
Assay: carcinogenic potency in animals, long-term in vivo studies, CPDB compilation (AID 1745844)

In the case of CCCCN(CCCC)C(=S)[S-].CCCCN(CCCC)C(=S)[S-].[Zn+2], the TD50 (mouse, strain B6AKF1, females, oral dosing, site: any site (literature study), lesion: several types, types named in the paper, dosed 76 weeks, study length 76 weeks) is reported as 2330 mg/kg/day (inactive), the carcinogen call (mouse, strain B6AKF1, females, oral dosing, site: liver, lesion: hepatoma, dosed 76 weeks, study length 76 weeks) is reported as “negative (inactive)” and the TD50 (mouse, strain B6AKF1, females, oral dosing, site: lung, lesion: adenoma, dosed 76 weeks, study length 76 weeks) is reported as 1090 mg/kg/day (inactive). The carcinogen call (mouse, strain B6AKF1, males, oral dosing, site: any site (literature study), lesion: several types, types named in the paper, dosed 76 weeks, study length 76 weeks) was “negative (inactive)”, the carcinogen call (mouse, strain B6AKF1, males, oral dosing, site: liver, lesion: hepatoma, dosed 76 weeks, study length 76 weeks) was “negative (inactive)” and the carcinogen call (mouse, strain B6AKF1, males, oral dosing, site: lung, lesion: adenoma, dosed 76 weeks, study length 76 weeks) was “negative (inactive)”. For the same molecule, the TD50 (mouse, strain B6C3F1, females, oral dosing, site: any site (literature study), lesion: several types, types named in the paper, dosed 76 weeks, study length 76 weeks) was 731 mg/kg/day (inactive), the carcinogen call (mouse, strain B6C3F1, females, oral dosing, site: liver, lesion: hepatoma, dosed 76 weeks, study length 76 weeks) was “negative (inactive)” and the TD50 (mouse, strain B6C3F1, females, oral dosing, site: lung, lesion: adenoma, dosed 76 weeks, study length 76 weeks) was 2330 mg/kg/day (inactive). The TD50 (mouse, strain B6C3F1, males, oral dosing, site: any site (literature study), lesion: several types, types named in the paper, dosed 76 weeks, study length 76 weeks) was 252 mg/kg/day (inactive), the TD50 (mouse, strain B6C3F1, males, oral dosing, site: liver, lesion: hepatoma, dosed 76 weeks, study length 76 weeks) was 680 mg/kg/day (inactive) and the TD50 (mouse, strain B6C3F1, males, oral dosing, site: lung, lesion: adenoma, dosed 76 weeks, study length 76 weeks) was 1050 mg/kg/day (inactive).
In the case of Nc1cnn([C@@H]2O[C@H](CO)[C@@H](O)[C@H]2O)c(=O)n1, the carcinogen call (rat, strain Fischer 344, males, i.p., site: any site (literature study), lesion: one or several types, types not named, dosed 52 weeks, study length 52 weeks) is reported as “negative (inactive)”.
With Cc1ccccc1OCC(O)CNCCn1cc(C)c(=O)[nH]c1=O (stereo not given) the TD50 (mouse, strain Charles River CD1, females, in feed, site: any site (literature study), lesion: several types, types named in the paper, dosed 78 weeks, study length 78 weeks) was 52.3 mg/kg/day, the TD50 (mouse, strain Charles River CD1, females, in feed, site: liver, lesion: hepatocellular carcinoma, dosed 78 weeks, study length 78 weeks) was 1670 mg/kg/day and the TD50 (mouse, strain Charles River CD1, females, in feed, site: lung, lesion: adenocarcinoma, dosed 78 weeks, study length 78 weeks) was 1670 mg/kg/day. The TD50 (mouse, strain Charles River CD1, females, in feed, site: lung, lesion: adenoma, dosed 78 weeks, study length 78 weeks) was 449 mg/kg/day and the TD50 (mouse, strain Charles River CD1, males, in feed, site: liver, lesion: hepatocellular carcinoma, dosed 78 weeks, study length 78 weeks) was 935 mg/kg/day.
COP(=O)(OC)OC(=CCl)c1cc(Cl)c(Cl)cc1Cl was tested, and the TD50 (mouse, strain B6C3F1, females, in feed, site: any site (literature study), lesion: several types, types named in the paper, dosed 80 weeks, study length 92 weeks) was 7880 mg/kg/day, the TD50 (mouse, strain B6C3F1, females, in feed, site: kidney, lesion: several types, types named in the paper, dosed 103 weeks, study length 103 weeks) was 32100 mg/kg/day and the TD50 (mouse, strain B6C3F1, females, in feed, site: liver, lesion: hepatocellular adenoma + hepatocellular carcinoma + neoplastic nodule, dosed 80 weeks, study length 92 weeks) was 905 mg/kg/day. For the same molecule, the TD50 (mouse, strain B6C3F1, females, in feed, site: liver, lesion: hepatocellular carcinoma + neoplastic nodule, dosed 80 weeks, study length 90 weeks) was 1070 mg/kg/day, the TD50 (mouse, strain B6C3F1, females, in feed, site: liver, lesion: hepatocellular carcinoma + neoplastic nodule, dosed 80 weeks, study length 92 weeks) was 905 mg/kg/day and the TD50 (mouse, strain B6C3F1, females, in feed, site: liver, lesion: hepatocellular carcinoma, dosed 103 weeks, study length 103 weeks) was 12400 mg/kg/day and 8990 mg/kg/day. For the same molecule, the TD50 (mouse, strain B6C3F1, females, in feed, site: liver, lesion: neoplastic nodule, dosed 80 weeks, study length 90 weeks) was 1380 mg/kg/day, the TD50 (mouse, strain B6C3F1, females, in feed, site: liver, lesion: several types, types named in the paper, dosed 103 weeks, study length 103 weeks) was 10200 mg/kg/day and 6330 mg/kg/day and the TD50 (mouse, strain B6C3F1, females, in feed, site: lung, lesion: alveolar/bronchiolar adenoma + alveolar/bronchiolar carcinoma, dosed 80 weeks, study length 92 weeks) was 7790 mg/kg/day. It also gave a TD50 (mouse, strain B6C3F1, males, in feed, site: any site (literature study), lesion: several types, types named in the paper, dosed 80 weeks, study length 92 weeks) of 295 mg/kg/day, a TD50 (mouse, strain B6C3F1, males, in feed, site: kidney, lesion: several types, types named in the paper, dosed 103 weeks, study length 103 weeks) of 4420 mg/kg/day and a TD50 (mouse, strain B6C3F1, males, in feed, site: kidney, lesion: tubular adenoma, dosed 103 weeks, study length 103 weeks) of 37600 mg/kg/day. For the same molecule, the TD50 (mouse, strain B6C3F1, males, in feed, site: kidney, lesion: tubular carcinoma, dosed 103 weeks, study length 103 weeks) was 5260 mg/kg/day, the TD50 (mouse, strain B6C3F1, males, in feed, site: liver, lesion: hepatocellular adenoma + hepatocellular carcinoma + neoplastic nodule, dosed 80 weeks, study length 92 weeks) was 228 mg/kg/day and the TD50 (mouse, strain B6C3F1, males, in feed, site: liver, lesion: hepatocellular adenoma, dosed 103 weeks, study length 103 weeks) was 18300 mg/kg/day. It also gave a TD50 (mouse, strain B6C3F1, males, in feed, site: liver, lesion: hepatocellular carcinoma + neoplastic nodule, dosed 80 weeks, study length 90 weeks) of 280 mg/kg/day, a TD50 (mouse, strain B6C3F1, males, in feed, site: liver, lesion: hepatocellular carcinoma + neoplastic nodule, dosed 80 weeks, study length 92 weeks) of 228 mg/kg/day and a TD50 (mouse, strain B6C3F1, males, in feed, site: liver, lesion: hepatocellular carcinoma, dosed 80 weeks, study length 90 weeks) of 534 mg/kg/day. The TD50 (mouse, strain B6C3F1, males, in feed, site: liver, lesion: hepatocellular carcinoma, dosed 80 weeks, study length 92 weeks) was 466 mg/kg/day, the TD50 (mouse, strain B6C3F1, males, in feed, site: liver, lesion: hepatocellular carcinoma, dosed 103 weeks, study length 103 weeks) was 1530 mg/kg/day and the TD50 (mouse, strain B6C3F1, males, in feed, site: liver, lesion: neoplastic nodule, dosed 80 weeks, study length 90 weeks) was 1770 mg/kg/day. The TD50 (mouse, strain B6C3F1, males, in feed, site: liver, lesion: several types, types named in the paper, dosed 103 weeks, study length 103 weeks) was 1150 mg/kg/day, the TD50 (mouse, strain B6C3F1, males, in feed, site: lung, lesion: alveolar/bronchiolar adenoma + alveolar/bronchiolar carcinoma, dosed 80 weeks, study length 92 weeks) was 401000 mg/kg/day and the TD50 (rat, strain Osborne-Mendel, females, in feed, site: adrenal gland, lesion: cortical adenoma, dosed 80 weeks, study length 109 weeks) was 2280 mg/kg/day. The TD50 (rat, strain Osborne-Mendel, females, in feed, site: pituitary gland, lesion: chromophobe adenoma, dosed 80 weeks, study length 111 weeks) was 1580 mg/kg/day (inactive), the TD50 (rat, strain Osborne-Mendel, females, in feed, site: thyroid gland, lesion: c-cell adenoma, dosed 80 weeks, study length 109 weeks) was 1920 mg/kg/day and the carcinogen call (rat, strain Osborne-Mendel, males, in feed, site: any site (literature study), lesion: several types, types named in the paper, dosed 80 weeks, study length 111 weeks) was “negative (inactive)”.
